{"source": "patent US4988678A", "about": "“Combinations of FU and BVU as anti-adenocarcinoma agents” (priority 1987, dated 1991)", "key": {"varicella zoster virus": {"system": "varicella zoster virus", "conditions": "infections caused by varicella zoster virus; cited from earlier work"}, "Epstein-Barr virus": {"system": "Epstein-Barr virus", "conditions": "infections caused by Epstein-Barr virus; cited from earlier work"}, "[1]": {"system": "herpes simplex virus type 1", "conditions": "infections caused by herpes simplex virus type 1; cited from earlier work"}, "[2]": {"conditions": "human body, cited from earlier work"}, "replication of viruses": {"system": "replication of viruses", "conditions": "BVU as such; cited from earlier work"}, "[3]": {"experiment": "Toxicity / deaths of mice in Example 1", "assay_type": "in vivo, male BDF1 mice"}, "[4]": {"conditions": "cited from earlier work"}, "adenocarcinoma 755": {"system": "adenocarcinoma 755", "experiment": "Antitumor activity against subcutaneous adenocarcinoma 755 in BDF1 mice, oral FU or FU + BVDU (Example 1)", "conditions": "for T/C (percent tumor weight with regard to control) / tumor weight, Mean ± SD: p.o. daily, 5 days, day 12", "procedure": "Groups of 6 male BDF1 -mice having a body weight of 21 to 23 g, were subcutaneously inoculated on day 0 with tumor cells of the type adenocarcinoma 755 at a dose of 5=10^5 cells per mouse. Thereupon, the compound FU (or a combination of FU and BVDU) was perorally administered in a predetermined daily dose during 5 consecutive days, starting 24 hours after the inoculation with tumor cells. On day 12, the tumor weight was determined and compared with the tumor weight in a non-treated control group."}, "[5]": {"conditions": "FU 30 mg/kg, p.o. daily, 5 days"}}, "data": [{"smiles": "O=c1[nH]c(=O)n([C@H]2C[C@H](O)[C@@H](CO)O2)cc1/C=C/Br", "note": "[BVDU, (E)-5-(2-bromovinyl)-2'-deoxyuridine]", "values": [{"measurement": "antiviral activity", "setting": "varicella zoster virus", "result": "active"}, {"measurement": "antiviral activity", "setting": "Epstein-Barr virus", "result": "active"}, {"measurement": "antiviral activity", "setting": "[1]", "result": "active"}, {"measurement": "conversion to BVU", "setting": "[2]", "result": "rapidly converted"}]}, {"smiles": "O=c1[nH]cc(/C=C/Br)c(=O)[nH]1", "note": "[BVU, 5-(2-bromovinyl)uracil]", "values": [{"measurement": "activity against replication of viruses", "setting": "replication of viruses", "result": "inactive"}, {"measurement": "presence in the blood stream", "setting": "[2]; after conversion from BVDU", "result": "remains present in the blood stream for a relatively long period"}]}, {"smiles": "O=c1[nH]c(=O)n(C2CCCO2)cc1F", "note": "(stereo not shown) [FT, N1-(2'-tetrahydrofuryl)-5-fluorouracil]", "values": [{"measurement": "conversion to FU", "setting": "[2]", "result": "converted slowly to FU"}]}, {"smiles": "O=c1[nH]cc(F)c(=O)[nH]1", "note": "[FU, 5-fluorouracil]", "values": [{"measurement": "died (animals of group)", "setting": "[3]; [5]", "result": "3/6"}, {"measurement": "toxicity (in words)", "setting": "[3]; [5]", "result": "Toxic"}, {"measurement": "LD50", "setting": "[3]; mouse, in vivo, po, FU used alone, from the Table (doses in mg/kg), read-out: LD50 (50% lethal dose)", "result": 30, "unit": "mg/kg"}, {"measurement": "degradation in the liver", "setting": "[4]", "result": "degraded rather rapidly"}, {"measurement": "T/C (percent tumor weight with regard to control)", "setting": "adenocarcinoma 755; FU 5 mg/kg", "result": 122, "unit": "%"}, {"measurement": "tumor weight, Mean ± SD", "setting": "adenocarcinoma 755; FU 5 mg/kg", "result": "2523 ± 389", "unit": "mg"}, {"measurement": "T/C (percent tumor weight with regard to control)", "setting": "adenocarcinoma 755; FU 10 mg/kg", "result": 85, "unit": "%"}, {"measurement": "tumor weight, Mean ± SD", "setting": "adenocarcinoma 755; FU 10 mg/kg", "result": "1759 ± 726", "unit": "mg"}, {"measurement": "T/C (percent tumor weight with regard to control)", "setting": "adenocarcinoma 755; FU 20 mg/kg", "result": 32, "unit": "%"}, {"measurement": "tumor weight, Mean ± SD", "setting": "adenocarcinoma 755; FU 20 mg/kg", "result": "675 ± 355", "unit": "mg"}, {"measurement": "therapeutic index (ratio of LD50 to ED50)", "setting": "adenocarcinoma 755; FU used alone", "result": 2}, {"measurement": "ED50", "setting": "adenocarcinoma 755; Mus musculus, po, 288 h, read-out: ED50 (dose causing a 50% reduction of T/C)", "result": 15, "unit": "mg/kg"}]}]}
